{"source": "patent EP1974608A1", "about": "“Arylpyridazines as fungicides” (Bayer CropScience AG, priority 2007, dated 2008)", "key": {"[1]": {"experiment": "logP determination by reversed-phase HPLC (C18), EEC Directive 79/831 Annex V.A8", "type": "physicochemical"}, "Alternaria solani": {"system": "Alternaria solani", "experiment": "Alternaria test (tomato) / protective", "type": "in vivo", "details": "500ppm Wirkstoff; protective spray on young tomato plants; evaluated 7 days after inoculation", "excerpt": "Alternaria-Test (Tomate) / protektiv\n(§1) Zur Herstellung einer zweckmäßigen Wirkstoffzubereitung vermischt man 1 Gewichtsteil Wirkstoff mit den angegebenen Mengen Lösungsmittel und Emulgator und verdünnt das Konzentrat mit Wasser auf die gewünschte Konzentration.\nZur Prüfung auf protektive Wirksamkeit bespritzt man junge Tomatenpflanzen mit der Wirkstoffzubereitung in der angegebenen Aufwandmenge. 1 Tag nach der Behandlung werden die Pflanzen mit einer Sporensuspension von Alternaria solani inokuliert und stehen dann 24h bei 100% rel. Feuchte und 20°C. Anschließend stehen die Pflanzen bei 96% rel. Luftfeuchtigkeit und einer Temperatur von 20°C.\n7 Tage nach der Inokulation erfolgt die Auswertung. Dabei bedeutet 0 % ein Wirkungsgrad, der demjenigen der Kontrolle entspricht, während ein Wirkungsgrad von 100 % bedeutet, dass kein Befall beobachtet wird."}, "Venturia inaequalis": {"system": "Venturia inaequalis", "experiment": "Venturia test (apple) / protective", "type": "in vivo", "details": "100ppm Wirkstoff; protective spray on young apple plants; evaluated 10 days after inoculation", "excerpt": "Venturia - Test (Apfel) / protektiv\nas §1\nZur Prüfung auf protektive Wirksamkeit werden junge Pflanzen mit der Wirkstoff zubereitung in der angegebenen Aufwandmenge besprüht. Nach Antrocknen des Spritzbelages werden die Pflanzen mit einer wäßrigen Konidiensuspension des Apfelschorferregers Venturia inaequalis inokuliert und verbleiben dann 1 Tag bei ca. 20°C und 100% relativer Luftfeuchtigkeit in einer Inkubations-kabine.\nDie Pflanzen werden dann im Gewächshaus bei ca, 21°C und einer relativen Luftfeuchtigkeit von ca. 90% aufgestellt.\n10 Tage nach der Inokulation erfolgt die Auswertung. Dabei bedeutet 0% ein Wirkungsgrad, der demjenigen der Kontrolle entspricht, während ein Wirkungsgrad von 100% bedeutet, daß kein Befall beobachtet wird."}, "[2]": {"details": "HPLC method of the footnote to Tabelle 1"}, "[3]": {"details": "reversed-phase c18 hplc, HPLC, 40°C, 0.1% aqueous formic acid / acetonitrile gradient 10% to 95%, read-out: log p"}}, "note": "Like-named read-outs stand apart in the source and are kept apart here.", "data": [{"smiles": "Cc1nc(-c2c(-c3ccc(Cl)cc3)c(C)n[nH]c2=O)cs1", "note": "[5-(4-Chlorphenyl)-4-(2-methyl-1,3-thiazol-4-yl)-6-methylpyridazin-3(2H)-on]", "values": [{"measurement": "logP", "setting": "[1]; [2]", "value": 2.26}]}, {"smiles": "Cc1n[nH]c(=O)c(-c2cccn2C)c1-c1ccc(Cl)cc1", "note": "[5-(4-Chlorphanyl)-4-(1-Methyl-1H-pyrrol-2-yl)-6-methylpyridazin-3(2H)-on]", "values": [{"measurement": "logP", "setting": "[1]; [2]", "value": 2.45}]}, {"smiles": "CC(Br)C(=O)c1ccc(Cl)cc1", "note": "(stereo not shown) [2-Brom-1-(4-chlorphenyl)propan-1-on]", "values": [{"measurement": "chromatographic logP", "setting": "[1]; reversed-phase c18 hplc, HPLC method of the footnote to Tabelle 1", "value": 3.39}]}, {"smiles": "Cc1nnc(Cl)c(-c2cccs2)c1-c1ccc(Cl)cc1", "note": "[Beispiel 29, 3-Chlor-5-(4-chlorphenyl)-4-(2-thienyl)-6-methylpyridazin]", "values": [{"measurement": "Wirkungsgrad", "setting": "Alternaria solani", "value": "≥ 70", "unit": "%"}, {"measurement": "chromatographic logP", "setting": "[1]; c18 reversed-phase hplc, HPLC method of the footnote to Tabelle 1", "value": 3.41}, {"measurement": "chromatographic logP", "setting": "[1]; [3]", "value": 3.41}, {"measurement": "Wirkungsgrad", "setting": "Venturia inaequalis", "value": "≥ 70", "unit": "%"}]}, {"smiles": "Cc1nc(-c2c(Cl)nnc(C)c2-c2ccc(Cl)cc2)cs1", "note": "[Beispiel 26]", "values": [{"measurement": "chromatographic logP", "setting": "[1]; [3]", "value": 2.82}]}, {"smiles": "Cc1nnc(Cl)c(-c2cccn2C)c1-c1ccc(Cl)cc1", "note": "[Beispiel 27]", "values": [{"measurement": "chromatographic logP", "setting": "[1]; [3]", "value": 3.24}]}, {"smiles": "Cc1n[nH]c(=O)c(-c2nc(Cl)c(Cl)s2)c1-c1ccc(Cl)cc1", "note": "[5-(4-Chlorphenyl)-4-(4,5-Dichlor-1,3-thiazol-2-yl)-6-methylpyridazin-3(2H)-on]", "values": [{"measurement": "logP", "setting": "[1]; [2]", "value": 3.94}]}, {"smiles": "Cc1n[nH]c(=O)c(-c2cccs2)c1-c1ccc(Cl)cc1", "note": "[5-(4-Chlorphenyl)-4-(2-thienyl)-6-methylpyridazin-3(2H)-on]", "values": [{"measurement": "logP", "setting": "[1]; [2]", "value": 2.71}]}, {"smiles": "CC1(O)OC(=O)C(c2cccs2)=C1c1ccc(Cl)cc1", "note": "(stereo not shown) [4-(4-Chlorphenyl)-5-hydroxy-5-methyl-3-(2-thienyl)furan-2(5H)-on]", "values": [{"measurement": "logP", "setting": "[1]; [2]", "value": 3.05}]}, {"smiles": "Cc1nnc(Cl)c(-c2nc(Cl)c(Cl)s2)c1-c1ccc(Cl)cc1", "note": "[Beispiel 28]", "values": [{"measurement": "chromatographic logP", "setting": "[1]; [3]", "value": 4.32}]}]}
